# Publication PMC3277886, “High-affinity fluorescent ligands for the 5-HT3 receptor” (Bioorganic & Medicinal Chemistry Letters, 2012)
# Like-named read-outs stand apart in the source and are kept apart here.
# How the values were obtained:
# human 5-HT3AR [1] = target: T1, human 5-HT3AR (Homo sapiens, UniProt P46098); details: read-out: Ki (nM) mean ± SEM; cited from earlier work
# T1 construct: expressed in transfected cells
# T1 sequence (P46098 24-478): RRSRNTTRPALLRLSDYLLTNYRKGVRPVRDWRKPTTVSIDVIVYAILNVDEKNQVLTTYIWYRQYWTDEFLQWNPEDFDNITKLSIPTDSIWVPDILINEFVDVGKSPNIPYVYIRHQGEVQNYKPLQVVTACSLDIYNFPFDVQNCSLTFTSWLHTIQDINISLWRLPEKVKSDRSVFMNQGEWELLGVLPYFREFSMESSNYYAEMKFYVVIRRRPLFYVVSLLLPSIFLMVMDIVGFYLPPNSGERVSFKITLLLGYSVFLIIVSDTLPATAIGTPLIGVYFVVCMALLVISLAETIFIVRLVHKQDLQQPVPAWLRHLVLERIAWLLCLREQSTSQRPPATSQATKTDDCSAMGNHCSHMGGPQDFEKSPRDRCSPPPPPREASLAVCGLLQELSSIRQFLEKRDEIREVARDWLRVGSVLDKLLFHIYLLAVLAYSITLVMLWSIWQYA
# human 5-HT3AR [2] = target: T1, human 5-HT3AR; assay: competition binding studies with [3H]granisetron
# Method: The photophysical properties of fluorescent granisetron derivatives were measured in MeOH and/or phosphate buffer at pH 7 (Table 1). […]. […] The binding affinities of the fluorescent granisetron probes for the human 5-HT3AR were determined by competition binding studies with [^3H]granisetron. […]. In terms of probe design it appears that optimal binding is obtained if the fluorophore is conjugated to N1 of granisetron via a short (butyl) aliphatic spacer. […]
# (5) Radioligand binding and fluorescence microscopy
# Materials, cell culture maintenance, receptor expression and radioligand binding for […]
# human 5-HT3A receptors = target: T2, human 5-HT3A receptors (Homo sapiens, UniProt P46098); assay: live cell imaging (fluorescence microscopy) of COS-7 cells transiently transfected with human 5-HT3A receptors; assay type: cell-based; details: 100 nM probe; for selectivity of staining: 5-HT3A-transfected versus mock transfected cells / detectable staining of cells: 1 h; for selectivity of staining: 5-HT3A-transfected versus mock transfected cells / inhibition of staining by co-incubation with ondansetron: live COS-7 cells; for selectivity of staining: 5-HT3A-transfected versus mock transfected cells: transfected vs mock transfected; for detectable staining of cells: HBS buffer, room temperature, live COS-7 cells transfected with human 5-HT3A; for inhibition of staining by co-incubation with ondansetron: co-incubation with ondansetron (OND) 10 μM
# T2 construct: myc; expressed in transfected cells; host or cells: COS-7
# T2 sequence (P46098 24-478): T1 sequence (P46098 24-478)
# Method: The utility of granisetron probes 16–18, 26–28 and 36 to fluorescently label the receptor was studied using live cell imaging of COS-7 cells transiently transfected with human 5-HT3A receptors.
# Figure 2 Fluorescent labeling of human 5-HT3AR in live COS-7 cells. Cells were either transfected with human 5HT3A cDNA (left and middle panels), or mock transfected (right panels). 24 h later they were incubated with 100 nM of probes 16, 18 or 28 in HBS buffer for 1 h at room temperature in the dark. The cells were imaged using a fluorescence microscope set to the appropriate absorption/emission wavelengths (Table 1). Some cells were also co-incubated with 10 μM ondansetron (OND, middle panels) to block 5-HT3 receptors. Scale bar represents 50 μm. […]
# (5) Radioligand binding and fluorescence microscopy […]
# For the fluorescence microscopy experiments COS-7 cells were transiently transfected with human 5-HT3A-myc cDNA (10 µg per transfection of […]) by electroporation (400 V, ∞ Ω, 125 µF), and grown on coverslips for 24 hours. Cells were washed with HBS then incubated with 100 nM of each probe (diluted in HBS) for 1 hour at room temperature in the dark. In some experiments 10 µM unlabelled ondansetron (OND) was co-incubated with the probes. Excess probe was removed by washing four times in HBS, and coverslips were placed in an imaging chamber with 1 ml HBS. Cells were then imaged using a fluorescence microscope set to the appropriate emission/excitation wavelengths. […]
# [3] = human 5-HT3AR, competition with [3H]granisetron, read-out: Ki (nM) mean ± SEM
SMILES,Ki (human 5-HT3AR [2]) [nM],Ki (human 5-HT3AR [2]; [3]) [nM],other results
COc1cccc2c1c(C(=O)NC1CC3CCCC(C1)N3C)nn2C (stereo not drawn) [Probe 2],,,Ki (human 5-HT3AR [1]): 26 ± 7 nM
COc1cccc2c(C(=O)NC3CC4CCCC(C3)N4C)nn(C)c12 (stereo not drawn) [Probe 5],,,Ki (human 5-HT3AR [1]): 71 ± 8 nM
Cc1cc(C)n2c1C=C1C=CC(CCC(=O)NCCCn3nc(C(=O)NC4CC5CCCC(C4)N5C)c4ccccc43)=[N+]1[B-]2(F)F (stereo not drawn) [Probe 6],,,Ki (human 5-HT3AR [1]): 2.8 ± 0.7 nM
COc1ccc(C2=[N+]3C(=Cc4c(C)c(CCC(=O)NCCCCCC(=O)NCCCn5nc(C(=O)NC6CC7CCCC(C6)N7C)c6ccccc65)c(C)n4[B-]3(F)F)C=C2)cc1 (stereo not drawn) [Probe 14],0.9 ± 0.3,,
CCN(CC)c1ccc2cc(C(=O)NCCCn3nc(C(=O)NC4CC5CCCC(C4)N5C)c4ccccc43)c(=O)oc2c1 (stereo not drawn) [Probe 15],199 ± 39,,
CN1C2CCCC1CC(NC(=O)c1nn(CCCNC(=S)Nc3ccc(-c4c5ccc(=O)cc-5oc5cc(O)ccc45)c(C(=O)O)c3)c3ccccc13)C2 (stereo not drawn) [Probe 16],,1.6 ± 0.3,selectivity of staining: 5-HT3A-transfected versus mock transfected cells (human 5-HT3A receptors): selective staining for 5-HT3R; detectable staining of cells (human 5-HT3A receptors): detectable staining; inhibition of staining by co-incubation with ondansetron (human 5-HT3A receptors): inhibited by co-incubation with the 5-HT3R antagonist ondansetron
CCN(CC)c1ccc2cc(C(=O)NCCCCn3nc(C(=O)NC4CC5CCCC(C4)N5C)c4ccccc43)c(=O)oc2c1 (stereo not drawn) [Probe 17],,7.3 ± 2.5,
CN1C2CCCC1CC(NC(=O)c1nn(CCCCNC(=S)Nc3ccc(-c4c5ccc(=O)cc-5oc5cc(O)ccc45)c(C(=O)O)c3)c3ccccc13)C2 (stereo not drawn) [Probe 18],1.1 ± 0.2,,selectivity of staining: 5-HT3A-transfected versus mock transfected cells (human 5-HT3A receptors): selective staining for 5-HT3R; detectable staining of cells (human 5-HT3A receptors): detectable staining; inhibition of staining by co-incubation with ondansetron (human 5-HT3A receptors): inhibited by co-incubation with the 5-HT3R antagonist ondansetron
CCN(CC)c1ccc2cc(C(=O)NCCOCCOCCn3nc(C(=O)NC4CC5CCCC(C4)N5C)c4ccccc43)c(=O)oc2c1 (stereo not drawn) [Probe 20],,142 ± 5,
CN1C2CCCC1CC(NC(=O)c1nn(CCOCCOCCNC(=S)Nc3ccc(-c4c5ccc(=O)cc-5oc5cc(O)ccc45)c(C(=O)O)c3)c3ccccc13)C2 (stereo not drawn) [Probe 21],,6300,
CCN(CC)c1ccc2c(-c3ccc(NC(=S)NCCOCCOCCn4nc(C(=O)NC5CC6CCCC(C5)N6C)c5ccccc54)cc3C(=O)[O-])c3ccc(=[N+](CC)CC)cc-3oc2c1 (stereo not drawn) [Probe 22],,384 ± 68,
CN1C2CCCC1CC(NC(=O)c1nn(CCCNc3ccc([N+](=O)[O-])c4nonc34)c3ccccc13)C2 (stereo not drawn) [Probe 26],,8.7 ± 5.8,
CN(C)c1cccc2c(S(=O)(=O)NCCCn3nc(C(=O)N[C@H]4C[C@H]5CCC[C@@H](C4)N5C)c4ccccc43)cccc12 [Probe 27],,1.2 ± 0.6,
CC1=CC(C)=[N+]2C1=C(CCCOC(=O)CCCn1nc(C(=O)NC3CC4CCCC(C3)N4C)c3ccccc31)c1c(C)cc(C)n1[B-]2(F)F (stereo not drawn) [Probe 28],,1.6 ± 0.8,selectivity of staining: 5-HT3A-transfected versus mock transfected cells (human 5-HT3A receptors): intense fluorescence in both 5-HT3A- and mock-transfected cells; detectable staining of cells (human 5-HT3A receptors): detectable staining; inhibition of staining by co-incubation with ondansetron (human 5-HT3A receptors): not blocked by ondansetron
CCN(CC)c1ccc2cc(C(=O)NCCOc3cccc4c(C(=O)NC5CC6CCCC(C5)N6C)nn(C)c34)c(=O)oc2c1 (stereo not drawn) [Probe 36],1.9 ± 0.9,,
CCN(CC)c1ccc2cc(C(=O)NCCCOc3cccc4c(C(=O)N[C@H]5C[C@H]6CCC[C@@H](C5)N6C)nn(C)c34)c(=O)oc2c1 [Probe 37],157 ± 9,,
CCN(CC)c1ccc2cc(C(=O)NCCOCCOCCOc3cccc4c(C(=O)N[C@@H]5C[C@H]6CCC[C@@H](C5)N6C)nn(C)c34)c(=O)oc2c1 [Probe 38],,1300,
CN1[C@@H]2CCC[C@H]1C[C@@H](NC(=O)c1nn(C)c3c(OCCOCCOCCNC(=S)Nc4ccc(-c5c6ccc(=O)cc-6oc6cc(O)ccc56)c(C(=O)O)c4)cccc13)C2 [Probe 39],208 ± 55,,
